Assays:
sugar beet = assay: Test B pre/postemergence sugar beet; format: in vivo, Beta vulgaris
Method in brief: (§1)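 Test chemicals in a non-phytotoxic solvent mixture with surfactant were sprayed preemergence onto planted seeds and postemergence onto plants 2 to 18 cm tall (1- to 4-leaf stage). After twelve to sixteen days in a greenhouse, injury was visually rated against untreated controls from 0 (no effect) to 10 (complete control).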

morningglory = assay: Test B pre/postemergence morningglory; format: in vivo, Ipomoea hederacea
Method in brief: as §1

smallflower flatsedge = assay: Test B flood test smallflower flatsedge; format: in vivo, Cyperus difformis
Method in brief: (§2)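 Plants were grown to the 2-leaf stage before treatment with test chemical, then held in a greenhouse for twelve to sixteen days. Injury was visually rated against untreated controls on a 0–10 scale, where 0 is no effect and 10 is complete control.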

corn = assay: Test B pre/postemergence corn; format: in vivo, Zea mays
Method in brief: as §1

giant foxtail = assay: Test B pre/postemergence giant foxtail; format: in vivo, Setaria faberii
Method in brief: as §1

bamyardgrass = assay: Test B flood test barnyardgrass; format: in vivo, Echinochloa crus-galli
Method in brief: as §2

cocklebur = assay: Test B pre/postemergence cocklebur; format: in vivo, Xanthium strumarium
Method in brief: as §1

crabgrass = assay: Test B pre/postemergence crabgrass; format: in vivo, Digitaria sanguinalis
Method in brief: as §1

wheat = assay: Test B pre/postemergence wheat; format: in vivo, Triticum aestivum
Method in brief: as §1

pigweed = assay: Test B pre/postemergence pigweed; format: in vivo, Amaranthus retroflexus
Method in brief: as §1

rape = assay: Test B pre/postemergence rape; format: in vivo, Brassica napus
Method in brief: as §1

surinam grass = assay: Test B pre/postemergence surinam grass; format: in vivo, Brachiaria decumbens
Method in brief: as §1

wild oat = assay: Test B pre/postemergence wild oat; format: in vivo, Avena fatua
Method in brief: as §1

purple nutsedge = assay: Test B pre/postemergence purple nutsedge; format: in vivo, Cyperus rotundus
Method in brief: as §1

duck salad = assay: Test B flood test duck salad; format: in vivo, Heteranthera limosa
Method in brief: as §2

[1] = Postemergence, Rate 62 g/ha, scale of 0 to 10, 0 is no effect, 10 is complete control
[2] = Postemergence, Rate 500 g/ha, scale 0 to 10, 0 is no effect, 10 is complete control
[3] = Preemergence, Rate 62 g/ha, scale 0 to 10 (0 no effect, 10 complete control)
[4] = Preemergence, Rate 125 g/ha, scale 0 to 10, 0 is no effect, 10 is complete control
[5] = Preemergence, Rate 500 g/ha, scale of 0 to 10 where 0 is no effect and 10 is complete control
[6] = Rate 250 g/ha, Postemergence, scale of 0 to 10 where 0 is no effect and 10 is complete control
[7] = Postemergence, Rate 125 g/ha, scale 0 to 10, 0 is no effect, 10 is complete control
[8] = Rate 62 g/ha, flood test species, Pre-emergence, visual evaluation after twelve to sixteen days
[9] = Rate 125 g/ha, under heading Pre-emergence, flood test species, visual evaluation after twelve to sixteen days
[10] = Rate 250 g/ha, Pre-emergence (flood test species), scale 0 to 10, 0 is no effect, 10 is complete control
[11] = Rate 500 g/ha, Pre-emergence section of Table B, 0 to 10 scale (0 no effect, 10 complete control)

Q: Which results are given for CCC=CCn1c(=O)on(C(=O)N(c2ccc(Cl)cc2)C(C)C)c1=O [Compound 552]?
A: Sugarbeets plant response rating (sugar beet; [1]): 0; Plant response rating, Sugarbeets (sugar beet; [2]): 7; Sugarbeets plant response rating (sugar beet; [3]): 0; Sugarbeets plant response rating (sugar beet; [4]): 0; Sugarbeets plant response rating (0 to 10 scale) (sugar beet; Preemergence, Rate 250 g/ha): 0; Sugarbeets plant response rating (sugar beet; [5]): 5; Plant response rating, Sugarbeets (sugar beet; [6]): 3; Morningglory plant response rating (morningglory; [1]): 1; Morningglory plant response rating (morningglory; [7]): 1; Plant response rating, Morningglory (morningglory; [2]): 7; Morningglory plant response rating (morningglory; [3]): 0; Morningglory plant response rating (morningglory; [4]): 0; Morningglory plant response rating (0 to 10 scale) (morningglory; Preemergence, Rate 250 g/ha): 0; Morningglory plant response rating (morningglory; [5]): 0; Plant response rating, Morningglory (morningglory; [6]): 2; Plant response rating, S. Flatsedge (0 to 10 scale, 0 is no effect, 10 is complete control) (smallflower flatsedge; [8]): 0; S. Flatsedge plant response rating (0 to 10 scale, 0 is no effect, 10 is complete control) (smallflower flatsedge; [9]): 0; S. Flatsedge plant response rating (smallflower flatsedge; [10]): 0; S. Flatsedge plant response rating (smallflower flatsedge; [11]): 0; Corn plant response rating (corn; [1]): 0; Corn plant response rating (corn; [7]): 0; Plant response rating, Corn (corn; [2]): 0; Corn plant response rating (corn; [3]): 0; Corn plant response rating (corn; [4]): 0; Corn plant response rating (0 to 10 scale) (corn; Preemergence, Rate 250 g/ha): 0; Corn plant response rating (corn; [5]): 0; Plant response rating, Corn (corn; [6]): 0; Giant foxtail plant response rating (giant foxtail; [1]): 0; Giant foxtail plant response rating (giant foxtail; [7]): 3; Plant response rating, Giant foxtail (giant foxtail; [2]): 7; Giant foxtail plant response rating (giant foxtail; [3]): 9; Giant foxtail plant response rating (giant foxtail; [4]): 10; Giant foxtail plant response rating (0 to 10 scale) (giant foxtail; Preemergence, Rate 250 g/ha): 10; Giant foxtail plant response rating (giant foxtail; [5]): 10; Plant response rating, Giant foxtail (giant foxtail; [6]): 3; Plant response rating, Barnyardgrass (0 to 10 scale, 0 is no effect, 10 is complete control) (bamyardgrass; [8]): 0; Barnyardgrass plant response rating (0 to 10 scale, 0 is no effect, 10 is complete control) (bamyardgrass; [9]): 0; Barnyardgrass plant response rating (bamyardgrass; [10]): 0; Barnyardgrass plant response rating (bamyardgrass; [11]): 0; Cocklebur plant response rating (cocklebur; [1]): 0; Cocklebur plant response rating (cocklebur; [7]): 0; Plant response rating, Cocklebur (cocklebur; [2]): 4; Cocklebur plant response rating (cocklebur; [3]): 0; Cocklebur plant response rating (cocklebur; [4]): 0; Cocklebur plant response rating (0 to 10 scale) (cocklebur; Preemergence, Rate 250 g/ha): 0; Cocklebur plant response rating (cocklebur; [5]): 0; Plant response rating, Cocklebur (cocklebur; [6]): 2; Crabgrass plant response rating (crabgrass; [1]): 3; Crabgrass plant response rating (crabgrass; [7]): 9; Plant response rating, Crabgrass (crabgrass; [2]): 9; Crabgrass plant response rating (crabgrass; [3]): 9; Crabgrass plant response rating (crabgrass; [4]): 9; Crabgrass plant response rating (0 to 10 scale) (crabgrass; Preemergence, Rate 250 g/ha): 8; Crabgrass plant response rating (crabgrass; [5]): 10; Wheat plant response rating (wheat; [1]): 0; Plant response rating, Wheat (wheat; [2]): 3; Wheat plant response rating (wheat; [3]): 0; Wheat plant response rating (wheat; [4]): 0; Wheat plant response rating (0 to 10 scale) (wheat; Preemergence, Rate 250 g/ha): 0; Wheat plant response rating (wheat; [5]): 4; Plant response rating, Wheat (wheat; [6]): 0; Redroot pigweed plant response rating (pigweed; [1]): 0; Plant response rating, Redroot pigweed (pigweed; [2]): 3; Redroot pigweed plant response rating (pigweed; [3]): 0; Redroot pigweed plant response rating (pigweed; [4]): 4; Redroot pigweed plant response rating (0 to 10 scale) (pigweed; Preemergence, Rate 250 g/ha): 4; Redroot pigweed plant response rating (pigweed; [5]): 4; Plant response rating, Redroot pigweed (pigweed; [6]): 0; Rape plant response rating (rape; [1]): 2; Rape plant response rating (rape; [7]): 6; Plant response rating, Rape (rape; [2]): 7; Rape plant response rating (rape; [3]): 0; Rape plant response rating (rape; [4]): 0; Rape plant response rating (0 to 10 scale) (rape; Preemergence, Rate 250 g/ha): 0; Rape plant response rating (rape; [5]): 0; Plant response rating, Rape (rape; [6]): 4; B. signalgrass plant response rating (surinam grass; [1]): 0; B. signalgrass plant response rating (surinam grass; [7]): 0; Plant response rating, B. signalgrass (surinam grass; [2]): 0; B. signalgrass plant response rating (surinam grass; [3]): 4; B. signalgrass plant response rating (surinam grass; [4]): 8; B. signalgrass plant response rating (surinam grass; [5]): 9; Plant response rating, B. signalgrass (surinam grass; [6]): 0; Wild oats plant response rating (wild oat; [1]): 0; Plant response rating, Wild oats (wild oat; [2]): 3; Wild oats plant response rating (wild oat; [3]): 0; Wild oats plant response rating (wild oat; [4]): 0; Wild oats plant response rating (0 to 10 scale) (wild oat; Preemergence, Rate 250 g/ha): 0; Wild oats plant response rating (wild oat; [5]): 6; Plant response rating, Wild oats (wild oat; [6]): 0; Nutsedge plant response rating (purple nutsedge; [1]): 0; Nutsedge plant response rating (purple nutsedge; [7]): 0; Plant response rating, Nutsedge (purple nutsedge; [2]): 0; Nutsedge plant response rating (purple nutsedge; [3]): 0; Nutsedge plant response rating (purple nutsedge; [4]): 0; Nutsedge plant response rating (0 to 10 scale) (purple nutsedge; Preemergence, Rate 250 g/ha): 0; Nutsedge plant response rating (purple nutsedge; [5]): 0; Plant response rating, Nutsedge (purple nutsedge; [6]): 0; Plant response rating, Ducksalad (0 to 10 scale, 0 is no effect, 10 is complete control) (duck salad; [8]): 0; Ducksalad plant response rating (0 to 10 scale, 0 is no effect, 10 is complete control) (duck salad; [9]): 0; Ducksalad plant response rating (duck salad; [10]): 0; Ducksalad plant response rating (duck salad; [11]): 0

— US6737383B1, “Herbicidal oxadiazolidines” (priority 1999, dated 2004)
